A short description of the data set: Powder flowability (flow factor FFc), FT4 powder rheometer. The format is physicochemical. Particulars: Compound 1 alone. How it is done: For the simulation of the DG process, compression pressure was adjusted to produce ribbon of different porosity. The flowability and compressibility of either preblend or milled ribbon was measured to evaluate the manufacturability of each formulation on the DC and the DG processes. The peak force value of compression and the vertical projection area of tooling were used to calculate the maximum compression pressure (CP). Powder flowability (i.e., flow factor (FFc)) was measured using the FT4 powder rheometer with the characterization method of 3 kPa pre-consolidation and 10 ml filling volume (Freeman Technology, Tewkesbury UK). This method was applied because it was representative of powder flow scenarios in most pharmaceutical manufacturing processes. The true density of powder was measured using the AccuPyc 1340 pycnometer (Micrometrics, Norcross Ga. USA) to calculate porosity of the ribbon.

Our source for the flow factor values is US20210308061A1, “PHARMACEUTICAL COMPOSITIONS WITH A CDC7 INHIBITOR” (TAKED PHARMACEUTICAL COMPANY LIMITED, priority 2018, published 2021).

As for `Cc1[nH]ncc1-c1cc2nc([C@@H]3CC4CCN3CC4)[nH]c(=O)c2s1` [Compound 1, 2-[(2S)-1-azabicyclo[2.2.2]oct-2-yl]-6-(3-methyl-1H-pyrazol-4-yl)thieno[3,2-d]pyrimidin-4(3H)-one], the flow factor result was “about 2.3”.
